Usually IC50 stands for the point on the concentration scale where inhibition reaches its midpoint. Read a high IC50 as weaker potency in that assay.

This experiment has as its target PRMT5/MEP50 protein complex (Homo sapiens (Human), UniProt O14744). Description: PRMT5 biochemical assay (3H-SAM methylation of H4(1-21) peptide, filter plate scintillation). To be noted: 10 nM PRMT5/MEP50 complex, 200 nM H4(1-21) peptide, 1 uM SAM, 25 minute incubation at room temperature. As for the experimental part:
Biochemical Assay Methods
Compounds were solubilized in DMSO and serially diluted, using 3-fold dilutions, into 100% DMSO at a concentration 50-fold greater than the desired assay concentration. Following dilution, 1 ul was added to an empty 96-well microtiter plate. PRMT5/MEP50 protein complex was combined with H4(1-21) peptide ([…]) in PRMT5 assay buffer (50 mM Tris pH 8.5, 50 mM NaCl, 5 mM MgCl2, 1 mM EDTA, 1 mM TCEP) and 44 ul was added to the microtiter plate containing compound. S-Adenosyl-L-methionine (SAM) was prepared by combining ^3H labelled SAM with unlabelled SAM in PRMT5 assay buffer such that the final SAM concentration was 10 uM and the specific activity was 0.2 uCi/ul. The reaction was initiated by adding 5 ul of SAM stock to the microtiter plate. The final reaction conditions were 10 nM PRMT5/MEP50 complex, 200 nM peptide and 1 uM SAM. Following a 25 minute incubation at room temperature, the reaction was stopped with the addition of 100 uL of 20% TCA. The 3H-peptide product was captured using a 96-well filter plate (MSIPN4B, Millipore) and washed 5 times with PBS buffer. Scintillation fluid (100 ul) was added to the dried filter plate and counted in a liquid scintillation counter. IC50 values were determined by fitting the data to the standard 4-parameter dose response equation using Pfizer proprietary software.
Results for the biochemical assay of examples are summarized in Table 1, shown as IC50 values in μM.

Chain of PRMT5/MEP50 protein complex (O14744 other isoform, or with tags, fused parts or gaps): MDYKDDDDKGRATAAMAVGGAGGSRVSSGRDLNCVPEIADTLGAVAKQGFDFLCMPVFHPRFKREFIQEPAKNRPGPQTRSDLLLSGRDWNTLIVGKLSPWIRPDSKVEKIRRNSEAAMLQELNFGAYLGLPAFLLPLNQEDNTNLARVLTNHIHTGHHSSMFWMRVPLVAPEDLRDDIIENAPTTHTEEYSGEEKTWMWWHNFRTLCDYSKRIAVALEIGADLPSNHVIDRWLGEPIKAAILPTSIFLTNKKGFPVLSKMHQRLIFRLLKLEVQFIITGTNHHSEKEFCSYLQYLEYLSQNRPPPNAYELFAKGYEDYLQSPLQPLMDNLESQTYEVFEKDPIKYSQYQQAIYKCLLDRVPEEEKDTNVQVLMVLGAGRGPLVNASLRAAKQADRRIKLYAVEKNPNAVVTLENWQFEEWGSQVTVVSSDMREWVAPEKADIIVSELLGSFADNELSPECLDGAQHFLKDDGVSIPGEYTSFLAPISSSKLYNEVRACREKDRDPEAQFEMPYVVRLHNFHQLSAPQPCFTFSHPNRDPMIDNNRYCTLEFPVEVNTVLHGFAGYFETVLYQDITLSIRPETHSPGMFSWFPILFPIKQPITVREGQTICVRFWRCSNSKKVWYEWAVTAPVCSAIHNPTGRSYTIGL
Chain of PRMT5/MEP50 protein complex (Q9BQA1 whole entry partner): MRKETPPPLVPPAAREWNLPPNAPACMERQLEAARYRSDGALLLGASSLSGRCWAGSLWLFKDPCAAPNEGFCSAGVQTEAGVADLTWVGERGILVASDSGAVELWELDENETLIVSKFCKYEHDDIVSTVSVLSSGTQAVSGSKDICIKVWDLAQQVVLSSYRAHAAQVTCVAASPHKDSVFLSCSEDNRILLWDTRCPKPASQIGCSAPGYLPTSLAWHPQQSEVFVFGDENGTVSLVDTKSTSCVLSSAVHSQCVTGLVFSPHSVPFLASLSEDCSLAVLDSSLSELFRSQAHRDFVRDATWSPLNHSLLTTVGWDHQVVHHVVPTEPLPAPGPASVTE

Turning to `Cc1ncnc2c1ccn2[C@@H]1C[C@H](Oc2cc(Cl)c(Cl)cc2OCCN)[C@@H](O)[C@H]1O` [Example 151, (1S,2S,3S,5R)-3-(2-(2-aminoethoxy)-4,5-dichlorophenoxy)-5-(4-methyl-7H-pyrrolo[2,3-d]pyrimidin-7-yl)cyclopentane-1,2-diol], the IC50 turned out to be 78 nM. `Cc1ncnc2c1ccn2C1C[C@H](Oc2cccc3c2CNC3)[C@@H](O)[C@H]1O` (stereo partly drawn) [Example 79, (1S,2S,3S,5R)-3-(2,3-dihydro-1H-isoindol-4-yloxy)-5-(4-methyl-7H-pyrrolo[2;3-d]pyrimidin-7-yl)cyclopentane-1,2-diol] registered an IC50 of 83 nM. On to `Cc1ncnc2c1ccn2[C@@H]1C[C@H](Oc2cccc3c2CN[C@H](C)CO3)[C@@H](O)[C@H]1O` [Example 208, (1S,2S,3S,5R)-3-(((R)-3-methyl-2,3,4,5-tetrahydrobenzo[f][1,4]oxazepin-6-yl)oxy)-5-(4-methyl-7H-pyrrolo[2,3-d]pyrimidin-7-yl)cyclopentane-1,2-diol], for which the IC50 was 8 nM. Next, `Cc1ncnc2c1ccn2[C@@H]1C[C@H]([C@@H](O)c2ccc(F)c(F)c2)[C@@H](O)[C@H]1O` [Example 4, (1S,2R,5R)-3-[(R)-(3,4-difluorophenyl) (hydroxy)methyl]-5-(4-methyl-7H-pyrrolo[2,3-d]pyrimidin-7-yl)cyclopentane-1,2-diol]: 681 nM. Next, `N#Cc1cccc2c(N[C@@H]3C[C@H](C(O)c4ccc(F)c(F)c4)[C@@H](O)[C@H]3O)ncnc12` (single isomer, unassigned) [Example 29, 4-({(1R;2S;3R;4R)-4-[(3;4-difluorophenyl)(hydroxy)methyl]-2;3-dihydroxycyclopentyl}amino)quinazoline-8-carbonitrile]: above 200000 nM. Then `Cc1ncnc2c1ccn2[C@@H]1C[C@H](Oc2cccc3c2C(=O)NCCO3)[C@@H](O)[C@H]1O` [Example 163, 6-(((1S,2S,3S,4R)-2,3-dihydroxy-4-(4-methyl-7H-pyrrolo[2,3-d]pyrimidin-7-yl)cyclopentyl)oxy)-3,4-dihydrobenzo[f][1,4]oxazepin-5(2H)-one], with above 200000 nM; and `Cc1ncnc2c1ccn2[C@@H]1C[C@H](Oc2ncnc3c2CNCC3)[C@@H](O)[C@H]1O` [Example 156, (1S,2S,3R,5S)-3-(4-methyl-7H-pyrrolo[2,3-d]pyrimidin-7-yl)-5-((5,6,7,8-tetrahydropyrido[4,3-d]pyrimidin-4-yl)oxy)cyclopentane-1,2-diol], with 107 nM; and `Cc1ncnc2c1ccn2[C@@H]1C[C@H](Oc2cccc3c2CCN(C)C3)[C@@H](O)[C@H]1O` [Example 81, (1S,2S,3R,5S)-3-(4-methyl-7H-pyrrolo[2,3-d]pyrimidin-7-yl)-5-[(2-methyl-1,2,3,4-tetrahydroisoquinolin-5-yl)oxy]cyclopentane-1,2-diol], with 1670 nM. Compound `Nc1ncnc2c1ccn2[C@@H]1C[C@H]([C@H](O)c2ccc(Cl)c(F)c2)[C@@H](O)[C@H]1O` [Example 23, (1R,2S,3R,5R)-3-(4-amino-7H-pyrrolo[2,3-d]pyrimidin-7-yl)-5-((S)-(4-chloro-3-fluorophenyl)(hydroxy)methyl)cyclopentane-1,2-diol] showed an IC50 of 572 nM. Turning to `Cc1ncnc2c1ccn2[C@@H]1C[C@H](C(F)(CN)c2ccc(F)cc2)[C@@H](O)[C@H]1O` (stereo partly drawn) [Example 50, (1S,2R,3S,5R)-3-[2-amino-1-fluoro-1-(4-fluorophenyl)ethyl]-5-(4-methyl-7H-pyrrolo[2,3-d]pyrimidin-7-yl)cyclopentane-1,2-diol], 18900 nM corresponded to half-maximal inhibition (IC50). Take `Cc1ncnc2c1ccn2[C@@H]1C[C@H]([C@@H](O)c2ccc(Cl)cc2)[C@@H](O)[C@H]1O` [Example 12, (1S,2R,3R,5R)-3-[(R)-(4-chlorophenyl) (hydroxy)methyl]-5-(4-methyl-7H-pyrrolo[2,3-d]pyrimidin-7-yl)cyclopentane-1,2-diol]: the IC50 is 478 nM. The compound `Cc1ncnc2c1ccn2[C@@H]1C[C@H](Oc2ccc(F)c(F)c2CN)[C@@H](O)[C@H]1O` [Example 145, (1S,2S,3S,5R)-3-(2-(aminomethyl)-3,4-difluorophenoxy)-5-(4-methyl-7H-pyrrolo[2,3-d]pyrimidin-7-yl)cyclopentane-1,2-diol] came in with an IC50 of 11 nM.

In the case of `Cc1ncnc2c1ccn2[C@@H]1C[C@H](Oc2cc(-c3cc[nH]n3)cc3c2CNCC3)[C@@H](O)[C@H]1O` [Example 171, (1S,2S,3S,5R)-3-((6-(1H-pyrazol-3-yl)-1,2,3,4-tetrahydroisoquinolin-8-yl)oxy)-5-(4-methyl-7H-pyrrolo[2,3-d]pyrimidin-7-yl)cyclopentane-1,2-diol], the midpoint of inhibition, the IC50, lay at 14 nM.

The compound `Cc1cccc(CC(O)[C@H]2C[C@@H](n3ccc4c(C)ncnc43)[C@H](O)[C@@H]2O)n1` (stereo partly drawn) [Example 15, (1S,2R,3R,5R)-3-[1-hydroxy-2-(6-methylpyridin-2-yl)ethyl]-5-(4-methyl-7H-pyrrolo[2,3-d]pyrimidin-7-yl)cyclopentane-1,2-diol] returned an IC50 above 200000 nM. For the compound `Cc1ncnc2c1ccn2[C@@H]1C[C@H]([C@@H](O)c2cccc(Cl)c2)[C@@H](O)[C@H]1O` [Example 8, (1S,2R,3R,5R)-3-[(R)-(3-chlorophenyl) (hydroxy)methyl]-5-(4-methyl-7H-pyrrolo[2,3-d]pyrimidin-7-yl)cyclopentane-1,2-diol], the half-inhibitory concentration (IC50) is 3390 nM. Next, `Cc1nccc(N(C)[C@@H]2C[C@H]([C@H](O)c3ccc(F)c(F)c3)[C@@H](O)[C@H]2O)n1` [Example 35, (1S,2R,3R,5R)-3-[(S)-(3,4-difluorophenyl)(hydroxy)methyl]-5-[methyl(2-methylpyrimidin-4-yl)amino] cyclopentane-1,2-diol]: 150 nM; `CN(c1cc(N)ncn1)[C@@H]1C[C@H]([C@@H](O)c2ccc(F)c(F)c2)[C@@H](O)[C@H]1O` [Example 44, (1R,2S,3R,5R)-3-[(6-aminopyrimidin-4-yl)(methyl)amino]-5-[(R)-(3,4-difluorophenyl)(hydroxy)methyl]cyclopentane-1,2-diol]: 17000 nM; `Cc1ncnc2c1ccn2[C@@H]1C[C@H]([C@@H](O)c2ccc(Cl)cc2CN)[C@@H](O)[C@H]1O` [Example 54, (1S,2R,3R,5R)-3-((R)-(2-(aminomethyl)-4-chlorophenyl)(hydroxy)methyl)-5-(4-methyl-7H-pyrrolo[2,3-d]pyrimidin-7-yl)cyclopentane-1,2-diol]: 126 nM. Then `Cc1ncnc2c1ccn2[C@@H]1C[C@H](Oc2cccc3c2CNC(C)C3)[C@@H](O)[C@H]1O` (single isomer, unassigned) [Example 185], with 6 nM. Next, `Cc1ncnc2c1ccn2[C@@H]1C[C@H](Oc2cc(F)c(F)cc2OCCN)[C@@H](O)[C@H]1O` [Example 152, (1S,2S,3S,5R)-3-(2-(2-aminoethoxy)-4,5-difluorophenoxy)-5-(4-methyl-7H-pyrrolo[2,3-d]pyrimidin-7-yl)cyclopentane-1,2-diol]: 8 nM; `Cc1ncnc2c1ccn2[C@@H]1C[C@H]([C@@H](C)O)[C@@H](O)[C@H]1O` [Example 1, (1S,2R,3R,5R)-3-((R)-1-hydroxyethyl)-5-(4-methyl-7H-pyrrolo[2,3-d]pyrimidin-7-yl)cyclopentane-1,2-diol]: 510 nM. Take `Cc1nc(N)nc(N(C)[C@@H]2C[C@H]([C@@H](O)c3ccc(F)c(F)c3)[C@@H](O)[C@H]2O)n1` [Example 42, (1R,2S,3R,5R)-3-[(4-amino-6-methyl-1,3,5-triazin-2-yl)(methyl)amino]-5-[(R)-(3,4-difluorophenyl) (hydroxy)methyl]cyclopentane-1,2-diol]: it took 1390 nM to reach half-maximal inhibition (IC50). Next, `Nc1ncnc2c1c(F)cn2[C@@H]1C[C@H](Oc2cccc3c2CNC3)[C@@H](O)[C@H]1O` [Example 110, (1S,2S,3R,5S)-3-(4-amino-5-fluoro-7H-pyrrolo[2,3-d]pyrimidin-7-yl)-5-(2,3-dihydro-1H-isoindol-4-yloxy)cyclopentane-1,2-diol]: 8 nM; `Cc1ncnc2c1ccn2[C@@H]1C[C@H](Oc2cc(OC(C)C)c(F)c3c2CNCC3)[C@@H](O)[C@H]1O` [Example 201, (1S,2S,3S,5R)-3-((5-fluoro-6-isopropoxy-1,2,3,4-tetrahydroisoquinolin-8-yl)oxy)-5-(4-methyl-7H-pyrrolo[2,3-d]pyrimidin-7-yl)cyclopentane-1,2-diol]: 310 nM; `CO[C@H]1C[C@@H](n2ccc3c(C)ncnc32)[C@H](O)[C@@H]1O` (racemic) [Example 59, (+/−)-(1S,2S,3S,5R)-3-methoxy-5-(4-methyl-7H-pyrrolo[2,3-d]pyrimidin-7-yl)cyclopentane-1,2-diol]: 5740 nM. Then `Cc1ncnc2c1ccn2[C@@H]1C[C@H]([C@H](O)c2cccc(Cl)c2)[C@@H](O)[C@H]1O` [Example 7], with 120 nM; and `Cc1ncnc2c1ccn2[C@@H]1C[C@H](Oc2cc(Cl)c(Cl)cc2CN)[C@@H](O)[C@H]1O` [Example 147, (1S,2S,3S,5R)-3-(2-(aminomethyl)-4,5-dichlorophenoxy)-5-(4-methyl-7H-pyrrolo[2,3-d]pyrimidin-7-yl)cyclopentane-1,2-diol], with 24 nM.

These data come from US10709709B2, “Substituted carbonucleoside derivatives useful as anticancer agents” (Pfizer Inc., priority 2016, dated 2020).
